“And” between values parts separate entries of the source, which are not always exact repeats. Equal entries are not always repeated.
Columns and labels:
atherogenic lipids = conditions: APOE*3.CETP mice; cited from earlier work
[1] = Excretion balance of radioactivity after single oral [14C]-Compound B; assay type: in vivo, rat; conditions: male albino rats, single oral [14C]-Compound B 50 mg/kg
Experimental: To assess Compound B clearance via urine versus feces, the excretion pattern of a single oral dose of [14C]-Compound B was determined in male albino rats. […] The total excretion of radioactivity following oral administration was >95% within the first 48 hours. Excretion via the urine accounted for 12% of the administered dose. […]

[2] = Intestinal tissue distribution of radioactivity by quantitative whole-body autoradiography (QWBA); assay type: in vivo; conditions: male albino rat, single oral [14C]-Compound B 50 mg/kg
Experimental: This study was conducted to determine the intestinal tissue distribution of radioactivity in male albino rats following a single oral administration of [14C]-Compound B using quantitative whole-body autoradiography (QWBA). The tissue distribution in rats following a single oral dose of [14C]-Compound B at 50 mg/kg (ca 5 MBq/kg) was studied by QWBA analysis up to 168 hours after dosing.

[3] = system: IL6, IL1b, S100A8, TNFα, Reg3g, IL17a mRNA; assay: Colonic mRNA levels of cytokines and biomarkers by real-time PCR in DSS-induced colitis mice; assay type: in vivo, mouse; conditions: 126 and 252 mg/kg per day, relative to HPRT
Experimental: The C56BL/6J mouse is a strain susceptible to DSS-induced colitis. To evaluate the efficacy and dosage of Compound B in treatment of DSS-induced colitis, inflammation was induced in 30 9-week old C56BL/6J mice by adding 1.5% DSS to the drinking water for 7 days. The mice were fed a standard chow diet that consisted of 30 weight percent wheat. The mice were divided into three groups of 10, and for each day of DSS administration each group was administered via oral gavage either (1) 100 μL corn oil per day (Control), (2) 126 mg/kg Compound B (dissolved in 100 μL corn oil) per day (“Compound B-Low” or “Compound B-L”), or (3) 252 mg/kg Compound B (dissolved in 100 μL corn oil) per day (“Compound B-High” or “Compound B-H”). Following the 7-day period of DSS induction, mice were sacrificed and their intestinal tissue was used for histopathological and gene expression analysis.
To evaluate the effect of treatment with Compound B on the levels of proinflammatory cytokines and biomarkers, total RNA was extracted from small and large intestinal tissue samples (>100 mg). cDNA was synthesized by reverse transcription and analyzed by real-time PCR. Results were normalized to the level of the housekeeping gene hypoxanthine guanine phosphoribosyltransferase (HPRT). The relative mRNA expression of the tested gene relative to HPRT expression was calculated using the 2^−ΔΔCt method as described in Pickert et al., J. Exp. Med., 2009, 206:1465-1472. Interleukin 6 (IL6), IL1b, calgranulin-A (S100A8), and tumor necrosis factor α (TNFα) have been implicated as mediators of IBD, including both ulcerative colitis and Crohn's disease. IL6, IL1b, and calgranulin-A are prominently expressed in inflammatory macrophages. IL22-dependent regenerating islet-derived 3 gamma (Reg3g) is induced in response to inflammation in epithelial cells. IL17 is secreted by Th17 T helper cells and innate lymphoid cells type 3 (ILC3).

[4] = 1 hour, *affected by high levels of radioactivity in adjacent contents
[5] = 2 hours, *affected by high levels of radioactivity in adjacent contents
[6] = 4 hours, *affected by high levels of radioactivity in adjacent contents
[7] = 8 hours, *affected by high levels of radioactivity in adjacent contents

For `CC/C=C\C/C=C\C/C=C\C/C=C\C/C=C\CCCCSC(CC)(CC)C(=O)O` [Compound B, 2-ethyl-2-((5Z,8Z,11 Z,14Z,17Z)-icosa-5,8,11,14,17-pentaenylthio)butanoic acid], the “Effect on atherogenic lipids” value (atherogenic lipids) is listed as “significantly reduce atherogenic lipids”, the “Total excretion of radioactivity within the first 48 hours” value [1] is listed as over 95% and the “% Recovery of Administered Dose (Mean), Cage debris (0-168 h)” value ([1]; n = 3) is listed as 0.038%. The “% Recovery of Administered Dose (Mean), Carcass (168 h)” value ([1]; n = 3) was 1.14%, the “% Recovery of Administered Dose (Mean), Faeces (0-168 h)” value ([1]; n = 3) was 86% and 85.8% and the “% Recovery of Administered Dose (Mean), Mean total radioactivity (0-168 h)” value ([1]; n = 3) was 101%. The “% Recovery of Administered Dose (Mean), Urine (0-168 h)” value ([1]; n = 3) was 12% and 12.4%, the “% Recovery of Administered Dose (Mean), Cage wash (0-168 h)” value ([1]; n = 3, includes final cage wash) was 1.27% and the “Time of peak concentrations in the small intestinal mucosa” value [2] was 4 h. For the same compound, the “Radioactivity concentration, Caecum mucosa” value ([2]; 1 hour) was 1.04 μg equivalents of Compound B/g of tissue, the “Radioactivity concentration, Large intestine mucosa” value ([2]; 1 hour) was 0.740 μg equivalents of Compound B/g of tissue and the “Radioactivity concentration, Oesophageal wall” value ([2]; 1 hour) was 5.83 μg equivalents of Compound B/g of tissue. For the same compound, the “Radioactivity concentration, Rectum mucosa” value ([2]; 1 hour) was 0.417 μg equivalents of Compound B/g of tissue, the “Radioactivity concentration, Stomach mucosa (fundus)” value ([2]; 1 hour) was 8.08 μg equivalents of Compound B/g of tissue and the “Radioactivity concentration, Small intestine mucosa” value [2, 4] was 127* μg equivalents of Compound B/g of tissue. The “Radioactivity concentration, Stomach mucosa (non-fundic)” value [2, 4] was 17.3* μg equivalents of Compound B/g of tissue, the “Radioactivity concentration, Caecum mucosa” value ([2]; 2 hours) was 1.73 μg equivalents of Compound B/g of tissue and the “Radioactivity concentration, Large intestine mucosa” value ([2]; 2 hours) was 0.332 μg equivalents of Compound B/g of tissue. The “Radioactivity concentration, Oesophageal wall” value ([2]; 2 hours) was 1.72 μg equivalents of Compound B/g of tissue, the “Radioactivity concentration, Rectum mucosa” value ([2]; 2 hours) was 0.883 μg equivalents of Compound B/g of tissue and the “Radioactivity concentration, Stomach mucosa (fundus)” value ([2]; 2 hours) was 4.31 μg equivalents of Compound B/g of tissue. For the same compound, the “Radioactivity concentration, Small intestine mucosa” value [2, 5] was 56.5* μg equivalents of Compound B/g of tissue, the “Radioactivity concentration, Stomach mucosa (non-fundic)” value [2, 5] was 28.1* μg equivalents of Compound B/g of tissue and the “Radioactivity concentration, Large intestine mucosa” value ([2]; 4 hours) was 0.920 μg equivalents of Compound B/g of tissue. For the same compound, the “Radioactivity concentration, Oesophageal wall” value ([2]; 4 hours) was 1.29 μg equivalents of Compound B/g of tissue, the “Radioactivity concentration, Rectum mucosa” value ([2]; 4 hours) was 1.03 μg equivalents of Compound B/g of tissue and the “Radioactivity concentration, Stomach mucosa (fundus)” value ([2]; 4 hours) was 5.38 μg equivalents of Compound B/g of tissue. For the same compound, the “Radioactivity concentration, Caecum mucosa” value [2, 6] was 93.1* μg equivalents of Compound B/g of tissue, the “Radioactivity concentration, Small intestine mucosa” value [2, 6] was 158* μg equivalents of Compound B/g of tissue and the “Radioactivity concentration, Stomach mucosa (non-fundic)” value [2, 6] was 300* μg equivalents of Compound B/g of tissue. For the same compound, the “Radioactivity concentration, Oesophageal wall” value ([2]; 8 hours) was 5.86 μg equivalents of Compound B/g of tissue, the “Radioactivity concentration, Small intestine mucosa” value ([2]; 8 hours) was 42.7 μg equivalents of Compound B/g of tissue and the “Radioactivity concentration, Stomach mucosa (fundus)” value ([2]; 8 hours) was 7.84 μg equivalents of Compound B/g of tissue. For the same compound, the “Radioactivity concentration, Caecum mucosa” value [2, 7] was 112* μg equivalents of Compound B/g of tissue, the “Radioactivity concentration, Large intestine mucosa” value [2, 7] was 120* μg equivalents of Compound B/g of tissue and the “Radioactivity concentration, Rectum mucosa” value [2, 7] was 3.57* μg equivalents of Compound B/g of tissue. For the same compound, the “Radioactivity concentration, Stomach mucosa (non-fundic)” value [2, 7] was 252* μg equivalents of Compound B/g of tissue, the “Radioactivity concentration, Large intestine mucosa” value ([2]; 1 day) was 2.63 μg equivalents of Compound B/g of tissue and the “Radioactivity concentration, Oesophageal wall” value ([2]; 1 day) was 2.25 μg equivalents of Compound B/g of tissue. For the same compound, the “Radioactivity concentration, Rectum mucosa” value ([2]; 1 day) was 0.870 μg equivalents of Compound B/g of tissue, the “Radioactivity concentration, Small intestine mucosa” value ([2]; 1 day) was 22.6 μg equivalents of Compound B/g of tissue and the “Radioactivity concentration, Stomach mucosa (fundus)” value ([2]; 1 day) was 1.15 μg equivalents of Compound B/g of tissue. For the same compound, the “Radioactivity concentration, Stomach mucosa (non-fundic)” value ([2]; 1 day) was 3.87 μg equivalents of Compound B/g of tissue, the “Radioactivity concentration, Caecum mucosa” value ([2]; 1 day, *affected by high levels of radioactivity in adjacent contents) was 113* μg equivalents of Compound B/g of tissue and the “Radioactivity concentration, Caecum mucosa” value ([2]; 3 days) was 0.319 μg equivalents of Compound B/g of tissue. The “Radioactivity concentration, Large intestine mucosa” value ([2]; 3 days) was 1.06 μg equivalents of Compound B/g of tissue, the “Radioactivity concentration, Oesophageal wall” value ([2]; 3 days) was “BLQ (Tissue concentration below lower limit of quantification)” and the “Radioactivity concentration, Rectum mucosa” value ([2]; 3 days) was “BLQ (Tissue concentration below lower limit of quantification)”. The “Radioactivity concentration, Small intestine mucosa” value ([2]; 3 days) was 0.197 μg equivalents of Compound B/g of tissue, the “Radioactivity concentration, Stomach mucosa (fundus)” value ([2]; 3 days) was “BLQ (Tissue concentration below lower limit of quantification)” and the “Radioactivity concentration, Stomach mucosa (non-fundic)” value ([2]; 3 days) was 0.253 μg equivalents of Compound B/g of tissue. For the same compound, the “Radioactivity concentration, Caecum mucosa” value ([2]; 7 days) was 0.374 μg equivalents of Compound B/g of tissue, the “Radioactivity concentration, Large intestine mucosa” value ([2]; 7 days) was 0.296 μg equivalents of Compound B/g of tissue and the “Radioactivity concentration, Oesophageal wall” value ([2]; 7 days) was “BLQ (Tissue concentration below lower limit of quantification)”. For the same compound, the “Radioactivity concentration, Rectum mucosa” value ([2]; 7 days) was 0.641 μg equivalents of Compound B/g of tissue, the “Radioactivity concentration, Small intestine mucosa” value ([2]; 7 days) was “BLQ (Tissue concentration below lower limit of quantification)” and the “Radioactivity concentration, Stomach mucosa (fundus)” value ([2]; 7 days) was “BLQ (Tissue concentration below lower limit of quantification)”. The “Radioactivity concentration, Stomach mucosa (non-fundic)” value ([2]; 7 days) was “BLQ (Tissue concentration below lower limit of quantification)”, the “Expression of IL17a” value [3] was “lack of change” and the “mRNA levels of IL1b compared to untreated mice” value [3] was “dose-dependent decrease”. For the same compound, the “mRNA levels of IL6 compared to untreated mice” value [3] was “dose-dependent decrease”, the “mRNA levels of Reg3g compared to untreated mice” value [3] was “dose-dependent decrease” and the “mRNA levels of S100A8 compared to untreated mice” value [3] was “dose-dependent decrease”. The “mRNA levels of TNFα compared to untreated mice” value [3] was “dose-dependent decrease”.
